IC50 data for 34 compounds are collected here from patent US20050009840A1 (SUGEN, INC., priority 2003, published 2005).

“And” between values parts separate entries of the source, which are not always exact repeats. Equal values may be shown once. Where only a bound is given, the exact number is not on record here.

As a reminder, the IC50 is the midpoint of a concentration-inhibition curve.

The target in the first test is T1, Met kinase domain (GST fusion protein) (Homo sapiens, UniProt P08581).
T1 construct: Purified GST fusion protein containing the Met kinase domain
T1 sequence (P08581 1078-1345 limits assumed): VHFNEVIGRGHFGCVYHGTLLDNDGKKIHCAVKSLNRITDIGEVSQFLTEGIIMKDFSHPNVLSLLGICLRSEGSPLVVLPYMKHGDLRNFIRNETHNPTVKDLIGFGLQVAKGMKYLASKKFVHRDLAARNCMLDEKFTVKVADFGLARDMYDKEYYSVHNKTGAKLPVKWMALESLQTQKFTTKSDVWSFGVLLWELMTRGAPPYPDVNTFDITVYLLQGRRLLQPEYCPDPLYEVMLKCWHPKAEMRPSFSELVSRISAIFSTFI
The experiment in a line: Met transphosphorylation assay (ELISA, poly(glu-tyr) substrate).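 Further: Cell-free ELISA with plate-bound poly(Glu:Tyr 4:1) phosphorylated by GST-fused Met kinase domain plus ATP and Mn2+, phosphotyrosine detected by anti-phosphotyrosine antibody with HRP and ABTS read-out.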 Format: biochemical. The note with it: Table 2; read-out: Met IC50.
On to `CN(C)[C@H]1CCN(C(=O)c2ccc(-c3cnc(N)c(OCc4ccccc4C(F)(F)F)c3)cc2)C1` [Example I-185, {4-[6-Amino-5-(2-trifluoromethyl-benzyloxy)-pyridin-3-yl]-phenyl}-[(3S)-3-dimethylamino-pyrrolidin-1-yl]-methanone], for which the IC50 stood at 1.39 µM. Still for that read-out and setting: the figure for `CC(Oc1cc(-c2ccc(OCCN3CCOCC3)cc2)cnc1N)c1c(F)ccc(F)c1Cl` (stereo not shown) [Example I-353, 3-[1-(2-Chloro-3,6-difluoro-phenyl)-ethoxy]-5-[4-(2-morpholin-4-yl-ethoxy)-phenyl]-pyridin-2-ylamine] is 0.23 µM. Same read-out and setting: the figure for `CC(Oc1cc(-c2ccc(C(=O)N3CCN(C)CC3)cc2)cnc1N)c1c(F)ccc(F)c1Cl` (stereo not shown) [Example I-338, (4-{6-Amino-5-[1-(2-chloro-3,6-difluoro-phenyl)-ethoxy]-pyridin-3-yl}-phenyl)-(4-methyl-piperazin-1-yl)-methanone] is 0.077 µM; for `CC(Oc1cc(-c2ccc(C(=O)N3CC[C@H](O)C3)cc2)cnc1N)c1c(Cl)ccc(F)c1Cl` (stereo partly drawn) [Example I-306, (4-{6-Amino-5-[1-(2,6-dichloro-3-fluoro-phenyl)-ethoxy]-pyridin-3-yl}-phenyl)-((S)-3-hydroxy-pyrrolidin-1-yl)-methanone] it is 0.024 µM.

Consider `Nc1ncc(-c2cccc(NS(=O)(=O)CCN3CCCCC3)c2)cc1OCc1c(F)ccc(F)c1Cl` [Example I-260, 2-Pipendin-1-yl-ethanesulfonic acid {3-[6-amino-5-(2-chloro-3,6-difluoro-benzyloxy)-pyridin-3-yl]-phenyl}-amide], for which the IC50 came to 1.63 µM.

Take `CC(Oc1cc(-c2ccc(NS(=O)(=O)CCN3CC[C@@H](O)C3)cc2)cnc1N)c1c(F)ccc(F)c1Cl` (stereo partly shown) [Example I-327]: the IC50 came to 0.093 µM. The same measure, in the same setting: the figure for `CC(Oc1cc(-c2ccc(C(=O)N3CC[C@@H](N)C3)cc2)cnc1N)c1c(F)ccc(F)c1Cl` (stereo partly drawn) [Example I-334, (4-{6-Amino-5-[1-(2-chloro-3,6-difluoro-phenyl)-ethoxy]-pyridin-3-yl}-phenyl)-((R)-3-amino-pyrrolidin-1-yl)-methanone] is 0.089 µM.

As for `Nc1ncc(-c2cccc(C(=O)O)c2)cc1OCc1c(F)ccc(F)c1Cl` [Example I-225, 3-[6-Amino-5-(2-chloro-3,6-difluoro-benzyloxy)-pyridin-3-yl]-benzoic acid], the IC50 was 3.7 µM and 0.6 µM. The same measure, in the same setting: the figure for `CN(C)[C@H]1CCN(C(=O)c2cccc(-c3cnc(N)c(OCc4c(F)ccc(F)c4Cl)c3)c2)C1` [Example I-231, {-[6-Amino-5-(2-chloro-3,6-difluoro-benzyloxy)-pyridin-3-yl]-phenyl}-[(3S)-3-dimethylamino-pyrrolidin-1-yl]-methanone] is 0.128 µM; for `Nc1ncc(-c2ccc(NS(=O)(=O)CCN3CCN(C(=O)CO)CC3)cc2)cc1OCc1c(F)ccc(F)c1Cl` [Example I-254, 2-[4-(2-Hydroxy-acetyl)-piperazin-1-yl]-ethanesulfonic acid {4-[6-amino-5-(2-chloro-3,6-difluoro-benzyloxy)-pyridin 3-yl]-phenyl}-amide] it is 0.18 µM.

Still in this test, the particulars now being: plain numbers in column Met IC50 (μM) of Table 2; read-out: Met IC50.
As for `CC(Oc1cc(-c2ccc(NS(C)(=O)=O)cc2)cnc1N)c1c(Cl)ccc(F)c1Cl` (stereo not shown) [Example I-366, N-(4-{6-Amino-5-[1-(2,6-dichloro-3-fluoro-phenyl)-ethoxy]-pyridin-3-yl}-phenyl)-methanesulfonamide], the half-maximal inhibitory concentration (IC50) is 0.076 µM. As for `CC(Oc1cc(-c2ccsc2)cnc1N)c1c(Cl)ccc(F)c1Cl` (stereo not shown) [Example I-369, 3-[1-(2,6-Dichloro-3-fluoro-phenyl)-ethoxy]-5-thiophen-3-yl-pyridin-2-ylamine], the 50% inhibitory concentration (IC50) was 0.055 µM.

For the compound `CC(Oc1cc(-c2cccc(C(=O)N3CC[C@H](N)C3)c2)cnc1N)c1c(Cl)cccc1Cl` (stereo partly drawn) [Example I-397, (3-{6-Amino-5-[1-(2,6-dichloro-phenyl)-ethoxy]-pyridin-3-yl}-phenyl)-((S)-3-amino-pyrrolidin-1-yl)-methanone], the IC50 was 0.055 µM.

Consider `CC(Oc1cc(OCc2ccccc2)cnc1N)c1c(F)ccc(F)c1Cl` (stereo not shown) [Example I-529, 5-Benzyloxy-3-[1-(2-chloro-3,6-difluoro-phenyl)-ethoxy]-pyridin-2-ylamine], for which the IC50 is 2.58 µM.

In the case of `Nc1ncc(-c2cncnc2)cc1OCc1ccccc1Cl` [Example I-494, 3-(2-Chloro-benzyloxy)-5-pyrimidin-5-yl-pyridin-2-ylamine], the IC50 is 19.3 µM. Turning to `CC(Oc1cc(-c2cncc(C(=O)N3CCN(C)CC3)c2)cnc1N)c1c(Cl)ccc(F)c1Cl` (stereo not shown) [Example I-513, {6′-Amino-5′-[1-(2,6-dichloro-3-fluoro-phenyl)-ethoxy]-[3,3′]bipyridinyl-5-yl}-(4-methyl-piperazin-1-yl)-methanone], the IC50 turned out to be 0.034 µM. Still for that read-out and setting: the figure for `Nc1ncc(-c2ccncc2)cc1OCc1c(F)ccc(F)c1Cl` [Example I-502, 5-(2-Chloro-3,6-difluoro-benzyloxy)-[3,4′]bipyridinyl-6-ylamine] is 0.211 µM.

The test is the same for the next values; noted with them: read-out: Met IC50.
Take `CC(C)(C)OC(=O)N[C@H]1CCN(C(=O)c2cc3cc(-c4cnc(N)c(OCc5c(Cl)cccc5Cl)c4)ccc3[nH]2)C1` [Example I-83, (1-{5-[6-Amino-5-(2,6-dichloro-benzyloxy)-pyridin-3-yl]-1H-indole-2-carbonyl}-- (3S)-pyrrlidin-3-yl)-carbamic acid tert-butyl ester]: the IC50 is 5 µM.

On to `CC(Oc1nc(-c2ccc(C(=O)NCCN3CCOCC3)cc2)cnc1N)c1c(Cl)ccc(F)c1Cl` (stereo not shown) [II-153, 4-{5-Amino-6-[1-(2,6-dichloro-3-fluoro-phenyl)-ethoxy]-pyrazin-2-yl}-N-(2-morpholin-4-yl-ethyl)-benzamide], for which the half-inhibitory concentration (IC50) is 0.102 µM. Turning to `CC(Oc1nc(-c2ccc(NS(=O)(=O)CCN(C)C)cc2)cnc1N)c1c(Cl)ccc(F)c1Cl` (stereo not shown) [II-142, 2-Dimethylamino-ethanesulfonic acid (4-{5-amino-6-[1-(2,6-dichloro-3-fluoro-phenyl)-ethoxy]-pyrazin-2-yl}-phenyl)-amide], the IC50 is 0.22 µM.

Consider `Nc1ncc(-c2ccc3[nH]cc(CN4CCCC4)c3c2)cc1OCc1c(F)ccc(F)c1Cl` [Example I-75, 3-(2-Chloro-3,6-difluoro-benzyloxy)-5-(3-pyrrolidin-1-ylmethyl-1H-indol-5-yl)-pyridin-2-ylamine], for which the IC50 came out at 0.7 µM.

For the compound `CC(Oc1nc(-c2cccc(C(=O)N3C[C@@H](C)N[C@@H](C)C3)c2)cnc1N)c1c(Cl)cccc1Cl` (stereo partly drawn) [II-171, (3-{5-Amino-6-[1-(2,6-dichloro-phenyl)-ethoxy]-pyrazin-2-yl}-phenyl)-((3R,5S)-3,5-dimethyl-piperazin-1-yl)-methanone], the IC50 was 0.36 µM.

On to `CC(=O)N1CCN(CCNC(=O)c2cccc(-c3cnc(N)c(OC(C)c4c(Cl)ccc(F)c4Cl)n3)c2)CC1` (stereo not shown) [II-87, N-[2-(4-Acetyl-piperazin-1-yl)-ethyl]-3-{5-amino-6-[1-(2,6-dichloro-3-fluoro-phenyl)-ethoxy]-pyrazin-2-yl}-benzamide], for which the IC50 was found to be 0.186 µM. On to `Nc1ncc(-c2ccc3c(c2)OCO3)cc1OCc1c(Cl)cccc1Cl` [Example I-28, 5-Benzo[1,3]dioxol-5-yl-3-(2,6-dichloro-benzyloxy)-pyridin-2-ylamine], for which the IC50 came out at 8.5 µM.

With `Nc1ncc(-c2ccc3[nH]cc(CN4CCCC4)c3c2)nc1OCc1c(F)ccc(F)c1Cl` [II-62, 3-(2-Chloro-3,6-difluoro-benzyloxy)-5-(3-pyrrolidin-1-ylmethyl-1H-indol-5-yl)-pyrazin-2-ylamine], the IC50 was 0.35 µM. The same measure, in the same setting: the figure for `CC(Oc1nc(-c2cccc(C(=O)NCCN3CCOCC3)c2)cnc1N)c1c(Cl)ccc(F)c1Cl` (stereo not shown) [II-134, 3-{5-Amino-6-[1-(2,6-dichloro-3-fluoro-phenyl)-ethoxy]-pyrazin-2-yl}-N-(2-morpholin-4-yl-ethyl)-benzamide] is 0.21 µM; for `Nc1ncc(-c2ccc3[nH]c(C(=O)NCCN4CCCC4)cc3c2)cc1OCc1c(Cl)cccc1Cl` [Example I-81, 5-[6-Amino-5-(2,6-dichloro-benzyloxy)-pyridin-3-yl]-1H-indole-2-carboxylic acid (2-pyrrolidin-1-yl-ethyl)-amide] it is 1.2 µM; for `Nc1ncc(-c2ccc(OCC(=O)O)cc2)cc1OCc1c(F)cccc1F` [Example I-125, {4-[6-Amino-5-(2,6-difluoro-benzyloxy)-pyridin-3-yl]-phenoxy}-acetic acid] it is 14.7 µM. Same read-out and setting: the figure for `Nc1ncc(-c2cccc(NS(=O)(=O)CCN3CCOCC3)c2)nc1OCc1c(F)ccc(F)c1Cl` [II-26, 2-Morpholin-4-yl-ethanesulfonic acid {3-[5-amino-6-(2-chloro-3,6-difluoro-benzyloxy)-pyrazin-2-yl]-phenyl}-amide] is 3.3 µM; for `Nc1ncc(-c2ccc(C(=O)N(CC3CC3)C[C@H]3CCCN3)cc2)cc1OCc1c(Cl)cccc1Cl` [Example I-50, 4-[6-Amino-5-(2,6-dichloro-benzyloxy)-pyridin-3-yl]-N-cyclopropylmethyl-N-(2R)-pyrrolidin-2-ylmethyl-benzamide] it is 0.29 µM; for `CN1CCN(C(=O)c2cc3cc(-c4cnc(N)c(OCc5c(Cl)cccc5Cl)c4)ccc3[nH]2)CC1` [Example I-78] it is 0.18 µM. On the same count and under the same terms, the figure for `CC(Oc1nc(-c2ccc(C(=O)N3CC[C@H](N)C3)cc2)cnc1N)c1c(Cl)cccc1Cl` (stereo partly drawn) [II-165, (4-{5-Amino-6-[1-(2,6-dichloro-phenyl)-ethoxy]-pyrazin-2-yl}-phenyl)-((S)-3-aminopyrrolidin-1-yl)-methanone hydrogen chloride] is 0.1 µM.

As to `CS(=O)(=O)Nc1ccccc1-c1cnc(N)c(OCc2c(Cl)cccc2Cl)c1` [Example I-26, N-{2-[6-Amino-5-(2,6-dichloro-benzyloxy)-pyridin-3-yl]-phenyl}-methanesulfonamide], the IC50 is greater than 20 µM.

`CC(Oc1nc(-c2cc(C(=O)N3CCN(C)CC3)ccn2)cnc1N)c1c(Cl)ccc(F)c1Cl` (stereo not shown) [II-203, (2-{5-Amino-6-[1-(2,6-dichloro-3-fluoro-phenyl)-ethoxy]-pyrazin-2-yl}-pyridin-4-yl)-(4-methyl-piperazin-1-yl)-methanone]: the IC50 amounted to 0.18 µM.
